Experimental data: patent US20040102469A1, “Method for reducing the mortality rate” (Boehringer Ingelheim Pharma GmbH & Co. KG, priority 2002, published 2004)

Experiments:
[1] = five-year study; cited from earlier work
[2] = tested on: people with lung diseases, especially COPD; assay: mortality from respiratory disease in people with lung diseases regularly self-administering tiotropium through the HANDIHALER inhalation device; type: in vivo; conditions: regular self-administration by inhalation via HANDIHALER; compared with a population with similar characteristics not treated with tiotropium
Description: This is evidence by the number of people with lung diseases, especially COPD, who die from respiratory disease in a given prolonged period of time when regularly self-administering tiotropium through the HANDIHALER® inhalation device; the comparison being a population with similar characteristics not treated with tiotropium.

| SMILES | influence on mortality [1] | reduction of the mortality rate (number of people who die from respiratory disease in a given prolonged period of time) [2] |
| --- | --- | --- |
| CC(C)[N+]1(C)[C@@H]2CC[C@H]1CC(OC(=O)C(CO)c1ccccc1)C2.[Br-] (some centres unmarked) [ipratropium bromide] | did not show any influence on mortality |  |
| C[N+]1(C)C2C[C@H](OC(=O)C(O)(c3cccs3)c3cccs3)CC1[C@H]1OC21 (stereo partly drawn) [tiotropium, (1α,2β,4β,5α,7β)-7-[(hydroxydi-2-thienylacetyl)oxy]-9,9-dimethyl-3-oxa-9-azoniatricyclo[3.3.1.0^2,4]nonane bromide] |  | suitable in the reduction of the mortality rate |
